Laboratory results reported in ChEMBL document CHEMBL1201862, “PubChem BioAssay data set” (2004).
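The compound was tested at five concentrations on cells cultured in 96-well plates, with a 48-hour exposure period. GI50: concentration for 50% inhibition of growth.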 Activity calls are given as the source filed them. No stated cut-off is given here; in the data, active = GI50 up to about 1.1 µM and inactive = higher.

Assays:
Test in all cases: NCI anticancer screen, dose series, 48 h
[1] = system: 786-0
[2] = system: CAKI-1
[3] = system: HCT-15
[4] = system: HL-60
[5] = system: LOX IMVI
[6] = system: NCI-H226
[7] = system: NCI-H522
[8] = system: OVCAR-4
[9] = system: OVCAR-8
[10] = system: RPMI-8226
[11] = system: SF-295
[12] = system: SF-539
[13] = system: SK-MEL-28
[14] = system: SK-MEL-5
[15] = system: SK-OV-3
[16] = system: UO-31
[17] = system: HOP-92
[18] = system: SR

SMILES	GI50 [1]	GI50 [2]	GI50 [3]	GI50 [4]	GI50 [5]	GI50 [6]	GI50 [7]	GI50 [8]	GI50 [9]	GI50 [10]	GI50 [11]	GI50 [12]	GI50 [13]	GI50 [14]	GI50 [15]	GI50 [16]	GI50 [17]	GI50 [18]
COc1cccc2c1C1(O)C2CCCC12OCCCO2 (stereo not given)	> 100 µM (inactive)	> 100 µM (inactive)	> 100 µM	> 100 µM (inactive)	> 100 µM (inactive)	> 100 µM (inactive)	> 100 µM (inactive)	> 100 µM (inactive)	> 100 µM (inactive)	> 100 µM (inactive)	> 100 µM (inactive)	> 100 µM (inactive)	> 100 µM (inactive)	> 100 µM (inactive)	> 100 µM (inactive)	> 100 µM (inactive)		
Cc1nc(-n2nc(-c3ccccc3)cc2-c2ccccc2)sc1C(/C=C/c1ccc([N+](=O)[O-])cc1)=N/NC(N)=S	18.2 µM (inactive)	60.3 µM (inactive)	28.4 µM	4.13 µM (inactive)	> 10 µM (inactive)	22.8 µM (inactive)			39.8 µM (inactive)	11.9 µM (inactive)	45.8 µM (inactive)	28 µM (inactive)	91.8 µM (inactive)	28.8 µM (inactive)	73.5 µM (inactive)	7.41 µM (inactive)	25.1 µM (inactive)	
COC(=O)C1Cc2c(n(C)c3ccccc23)C(CCC(=O)O)N1Cc1ccccc1 (stereo not given)	> 100 µM (inactive)	37.2 µM (inactive)	27.7 µM	34.4 µM (inactive)	37.8 µM (inactive)	21.7 µM (inactive)	22.7 µM (inactive)	33.7 µM (inactive)	39.4 µM (inactive)	16.1 µM (inactive)	31 µM (inactive)	22.4 µM (inactive)	28.4 µM (inactive)	27.3 µM (inactive)	36.5 µM (inactive)	21.2 µM (inactive)	23.6 µM (inactive)	
O=[N+]([O-])C=C1c2ccccc2-c2ccccc21	16.7 µM (inactive)	11.4 µM (inactive)	19.1 µM	4.01 µM (inactive)	16.6 µM (inactive)	> 10 µM (inactive)	3.76 µM (inactive)	14.2 µM (inactive)	16.4 µM (inactive)	2.18 µM (inactive)	19 µM (inactive)	17.5 µM (inactive)	17.2 µM (inactive)			15.2 µM (inactive)		4.65 µM (inactive)
COc1ccc(C(O)C(c2ccc(OCc3ccccc3)cc2)c2ccc(OCc3ccccc3)cc2)cc1 (stereo not given)	> 100 µM (inactive)	> 100 µM (inactive)	> 100 µM	> 100 µM (inactive)		> 100 µM (inactive)	> 100 µM (inactive)	> 100 µM (inactive)	> 100 µM (inactive)	> 100 µM (inactive)	> 100 µM (inactive)	> 100 µM (inactive)	> 100 µM (inactive)	> 100 µM (inactive)	> 100 µM (inactive)	> 100 µM (inactive)	> 100 µM (inactive)	> 100 µM (inactive)
CCC(C)CN1C(=O)NC(C)(Cc2ccccc2)C1=O (stereo not given)	> 100 µM (inactive)	> 100 µM (inactive)		> 100 µM (inactive)	> 100 µM (inactive)	> 100 µM (inactive)	> 100 µM (inactive)		> 100 µM (inactive)		> 100 µM (inactive)	> 100 µM (inactive)	> 100 µM (inactive)	> 100 µM (inactive)		> 100 µM (inactive)	> 100 µM (inactive)	> 100 µM (inactive)
CC1=NN(C(=O)c2ccc([N+](=O)[O-])cc2)C(=O)C1/N=N/c1ccccc1C(=O)O (stereo not given)	> 100 µM (inactive)	> 100 µM (inactive)		90.2 µM (inactive)		32.1 µM (inactive)	79.4 µM (inactive)		> 100 µM (inactive)	> 100 µM (inactive)	> 100 µM (inactive)	> 100 µM (inactive)	> 100 µM (inactive)	> 100 µM (inactive)	53.6 µM (inactive)	> 100 µM (inactive)	45 µM (inactive)	> 10 µM (inactive)
O=C(CCCCCCCCCCc1ccccc1)C1=C(O)CCCC1=O	31.7 µM (inactive)	7.85 µM (inactive)		14.3 µM (inactive)	26.2 µM (inactive)	26.1 µM (inactive)	27 µM (inactive)	32.7 µM (inactive)	24.4 µM (inactive)	29 µM (inactive)	22.8 µM (inactive)	41.9 µM (inactive)	40.4 µM (inactive)	18.1 µM (inactive)	35.6 µM (inactive)	22 µM (inactive)	11.3 µM (inactive)	23.8 µM (inactive)
C/C=C1/CCC2c3[nH]c4ccccc4c3CCN2C1 (stereo not given)	> 100 µM (inactive)	37.2 µM (inactive)		58.2 µM (inactive)		57.5 µM (inactive)	> 100 µM (inactive)	42 µM (inactive)	> 100 µM (inactive)		> 100 µM (inactive)	> 100 µM (inactive)	> 100 µM (inactive)	37.2 µM (inactive)	> 100 µM (inactive)	> 100 µM (inactive)	24.2 µM (inactive)	> 100 µM (inactive)
CN1c2ccccc2NC(CC(=O)O)C2CC=CN21 (stereo not given)	> 100 µM (inactive)	> 100 µM (inactive)	> 100 µM	> 100 µM (inactive)	> 100 µM (inactive)		> 100 µM (inactive)	> 100 µM (inactive)	> 100 µM (inactive)	> 100 µM (inactive)	> 100 µM (inactive)	> 100 µM (inactive)	> 100 µM (inactive)	> 100 µM (inactive)	> 100 µM (inactive)	> 100 µM (inactive)	> 100 µM (inactive)	
O=C(CC1(O)C(=O)Nc2ccccc21)c1ccc(O)cc1 (stereo not given)	> 100 µM (inactive)	> 100 µM (inactive)	> 100 µM	> 100 µM (inactive)	> 100 µM (inactive)	> 100 µM (inactive)		> 100 µM (inactive)		> 100 µM (inactive)	> 100 µM (inactive)	> 100 µM (inactive)	> 100 µM (inactive)	> 100 µM (inactive)	> 100 µM (inactive)	> 100 µM (inactive)	> 100 µM (inactive)	> 100 µM (inactive)
O=C(CC(=O)N1N=C(c2ccccc2)C(/N=N/c2ccc(C(=O)O)cc2)C1=O)Nc1ccc(F)cc1 (stereo not given)	21.2 µM (inactive)	7.55 µM (inactive)	18 µM	22 µM (inactive)	12.4 µM (inactive)	6.15 µM (inactive)	10.4 µM (inactive)	52 µM (inactive)	40.8 µM (inactive)	27.5 µM (inactive)	36.9 µM (inactive)	13.4 µM (inactive)	38.3 µM (inactive)	16.7 µM (inactive)	12.2 µM (inactive)	29.6 µM (inactive)	50.8 µM (inactive)	
CN(/N=C\c1ccnc2ccccc12)c1ccc([N+](=O)[O-])cc1	> 100 µM (inactive)	> 100 µM (inactive)	> 100 µM	37.1 µM (inactive)	8.2 µM (inactive)	> 100 µM (inactive)			95.7 µM (inactive)	8.26 µM (inactive)	75.2 µM (inactive)	27 µM (inactive)	> 100 µM (inactive)	53.8 µM (inactive)	> 100 µM (inactive)		> 100 µM (inactive)	
O=[N+]([O-])c1nccn1COCCO	> 100 µM (inactive)	> 100 µM (inactive)	> 100 µM	> 100 µM (inactive)	> 100 µM (inactive)	> 100 µM (inactive)	> 100 µM (inactive)	> 100 µM (inactive)		> 100 µM (inactive)	> 100 µM (inactive)		> 100 µM (inactive)	> 100 µM (inactive)	> 100 µM (inactive)		> 100 µM (inactive)	> 100 µM (inactive)
CCOC(=O)C(C)N1C(=O)c2ccccc2S1(=O)=O (stereo not given)		> 100 µM (inactive)	> 100 µM	> 100 µM (inactive)	> 100 µM (inactive)	> 100 µM (inactive)	> 100 µM (inactive)	> 100 µM (inactive)	> 100 µM (inactive)	> 100 µM (inactive)	> 100 µM (inactive)	> 100 µM (inactive)	> 100 µM (inactive)	> 100 µM (inactive)	> 100 µM (inactive)	> 100 µM (inactive)	> 100 µM (inactive)	
Cc1cccc(C(C)(C)C)c1NC(=O)CC1C(=O)Nc2ccccc2[S+]1[O-] (stereo not given)	> 100 µM (inactive)	39.3 µM (inactive)	49.2 µM	20.9 µM (inactive)	55.7 µM (inactive)	69.3 µM (inactive)	39.4 µM (inactive)	18.5 µM (inactive)	97.1 µM (inactive)	34.3 µM (inactive)	62.8 µM (inactive)	75.7 µM (inactive)	41.5 µM (inactive)			41.6 µM (inactive)	68.7 µM (inactive)	24.9 µM (inactive)
[N-]=[N+]=Nc1ccccc1-[n+]1noc([O-])c1Br	> 100 µM (inactive)	> 100 µM (inactive)	> 100 µM	> 100 µM (inactive)		> 100 µM (inactive)	> 100 µM (inactive)	> 100 µM (inactive)	> 100 µM (inactive)	> 100 µM (inactive)	> 100 µM (inactive)	> 100 µM (inactive)	> 100 µM (inactive)	> 100 µM (inactive)	> 100 µM (inactive)	> 100 µM (inactive)	> 100 µM (inactive)	> 100 µM (inactive)
COC(=O)c1c(C(=O)OC)c(-c2ccccc2)n(-c2ccccc2)c(=O)c1-c1ccccc1	32.4 µM (inactive)	51.2 µM (inactive)	> 100 µM	> 100 µM (inactive)	84.5 µM (inactive)	> 100 µM (inactive)	94.8 µM (inactive)	25.2 µM (inactive)	51.4 µM (inactive)	> 100 µM (inactive)	36.9 µM (inactive)	17.7 µM (inactive)		> 100 µM (inactive)	53.5 µM (inactive)	59.7 µM (inactive)	24.3 µM (inactive)	> 100 µM (inactive)
